≈ marks a conversion by molar mass, not a printed value. Non-standard residues stand in square brackets, D forms with d. Residues, ends and D or L forms follow the SMILES beside them. ξ: configuration not given here. *: point of attachment. dNMeW = CN[C@H](Cc1c[nH]c2ccccc12)C(=O)O; ξNMeW = CNC(Cc1c[nH]c2ccccc12)C(=O)O; ξW = NC(Cc1c[nH]c2ccccc12)C(=O)O; NMeAib = CNC(C)(C)C(=O)O; Boc = CC(C)(C)OC(=O)*; Aib = CC(C)(N)C(=O)O; OtBu = CC(C)(C)O*
Columns and labels:
[1] = Aqueous solubility at pH 7.4; assay type: physicochemical; conditions: aqueous medium at pH 7.4, aqueous buffer
Experimental: The aqueous solubility of exemplary dipeptide analogs as disclosed herein was tested at pH 7.4.

P-gp (human PGP) = assay: Membrane permeability in MDCKII/PGP cells; assay type: in vitro ADME; conditions: dog, MDCK-MDR1; MDCKII cells transfected with human PGP; read-out: Permeability MDCKII/PGP AI (asymmetry index)
Experimental: (§1) Exemplary peptide analogs as disclosed herein were tested for membrane permeability in MDCKII cells transfected with human PGP, for evaluating intestinal absorption. The data obtained in presented in Table 5 below, where A-B is the apical-basolateral flux and AI is the asymmetry index.

human P-gp (PGP) = assay: Membrane permeability in MDCKII/PGP cells; assay type: in vitro ADME; conditions: dog, MDCK-MDR1; MDCKII cells transfected with human PGP; read-out: Permeability MDCKII/PGP A-B (apical-basolateral flux)
Experimental: as §1

[2] = Metabolic stability in human liver microsomes; assay type: in vitro ADME; conditions: % of compound remaining after 30 minutes
Experimental: (§2) The metabolic stability of exemplary peptide analogs as disclosed herein was tested in Human and Rat liver microsomes (HLM and RLM, respectively). The obtained data is presented in Table 5 below, as % of compound remaining after 30 minutes). All of the peptides were found sufficiently stable.

[3] = Metabolic stability in rat liver microsomes; assay type: in vitro ADME; conditions: % of compound remaining after 30 minutes
Experimental: as §2

Aβ1-42 = target: T1, Aβ1-42 (Homo sapiens, UniProt P05067); assay: Aβ1-42 globulomer generation / oligomer formation (Hillen protocol), gel staining and western blot; assay type: biochemical
T1 construct: β-amyloid polypeptides (Aβ 1-42, >98% pure); purchased Bachem (Bubendorf, Switzerland); host or cells: chemical synthesis
Experimental: Aβ1-42 intermediates and globulomers were produced according to Barghorn et al. [J. Neurochem. 2005 November; 95(3):834-47]. Synthetic lyophilized β-amyloid polypeptides (Aβ 1-42, >98% pure) were purchased from Bachem (Bubendorf, Switzerland). To avoid pre-aggregation, synthetic lyophilized Aβ1-42 was pretreated with HFIP. Aβ1-42 was dissolved in 100% HFIP, sonicated for 20 seconds and incubated for 2 hours at 37° C. under shaking at 100 RPM. After evaporation in a speedVac, Aβ1-42 was re-suspended in DMSO, with or without the tested peptide, to 5 mM and diluted with 20 mM NaH2PO4, 140 mM NaCl, pH 7.4, to a final concentration of 400 μM, and 1/10 volume 2% SDS (final concentration of 0.2%). The Aβ globulomers were generated by further dilution with two volumes of H2O and incubation for 18 hours or more.
To evaluate the effect of D-Trp-Aib analogs on the transformation of the Aβ1-42 into the toxic assemblies, the tested peptides were incubated with Aβ1-42 at increasing molar ratios, and the reaction mixtures were resolved on SDS-PAGE followed by western blot analysis by a specific anti Aβ antibody (6E10) (SIGNET).

Aβ monomers = target: T2, Aβ monomers (Homo sapiens, UniProt P05067); assay: SPR binding assay (BIACORE X100); conditions: immobilized Aβ monomers, 25° C., steady-state; mean ± SD; read-out: SPR binding IC50 [nM] +/− SD (repeats)
T2 construct: Aβ monomers were covalently coupled to one flow cell of CM7 sensor chips
Experimental: Surface Plasmon Resonance (SPR) studies were performed using a BIACORE X100 biosensor instrument (GE Lifesciences, Uppsala, Sweden), equipped with two flow cells on a sensor chip. Aβ monomers were covalently coupled to one flow cell of CM7 sensor chips (GE Lifesciences, Uppsala, Sweden) via primary amines using the Amine Coupling Kit (GE Lifesciences, Uppsala, Sweden). As a control, ethanolamine was immobilized on the reference channel. […] One RU represents about 1 pg/mm^2 of the analytes on the surface matrix of the sensor chip. […] The stock solutions were diluted 1:1000 in HBS-EP buffer which contains 0.01M HEPES, pH7.4, 0.15M NaCl, 3 mM EDTA, and 0.005% of surfactant P20. HBS-EP+0.1% (v/v) DMSO was used as assay running buffer. The test solutions were injected over the sensor chip in concentrations ranging from 0.1 nM to 300 nM at a flow rate of 10 μl/min for 180 seconds at 25° C. Concentrations were tested in duplicate. The RUs elicited by the compound injected into the ethanolamine control flow cell was set as reference response and subtracted from the RUs elicited by the same compound injected to the Aβ saturated flow cell. The relationships between each RU obtained at the steady state of binding (plateau of the binding curve) and each concentration of the compound were plotted. After the analyte injection was stopped, HBS-EP buffer was flowed over the chip for 180 s to allow the bound analyte to dissociate from the immobilized Aβ and the dissociation curves were obtained. After the dissociation phase, regeneration solution (1M NaCl, 50 mM NaOH) was injected and flowed over the chip for 30 seconds to remove the residual bound analytes from the immobilized Aβ. BIACORE X100 control software Ver 1.1 was used to record the binding curves and BIACORE X100 evaluation software Ver 1.1 to analyze the curves (plot each RU at the steady state vs. concentration of analyte, fit the plot, determine KD values). The dissociation equilibrium constant KD of the analyte to the immobilized Aβ was determined from the steady-state levels estimating the maximum RU Rmax and calculating the KD as the concentration of the compound that elicited one-half of the Rmax.

T2 sequence (P05067 672-713 limits assumed): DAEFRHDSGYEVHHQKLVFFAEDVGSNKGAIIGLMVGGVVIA
T1 sequence (P05067 672-713 limits assumed): as above

SMILES | solubility [1] [µM] | efflux ratio (P-gp (human PGP)) | Papp A→B (human P-gp (PGP)) [×10⁻⁶ cm/s] | Metabolic Stability (%) HLM [2] [%] | Metabolic Stability (%) RLM [3] [%] | IC50 (Aβ monomers) [nM] | other results
CC(=O)NC(Cc1c[nH]c2ccccc12)C(=O)NC(C)(C)C(=O)O (stereo not drawn) | 253 (≈ 83.8 µg/mL) | 0.7 | 1.5 | 90 | >100 |  | 
CC(C)(NC(=O)C(Cc1c[nH]c2ccccc12)NC=O)C(=O)O (stereo not drawn) | 222 (≈ 70.5 µg/mL) | 0.7 | 1.3 | 87 | >100 |  | 
CC(=O)N(C)C(Cc1c[nH]c2ccccc12)C(=O)NC(C)(C)C(=O)O (stereo not drawn) (Ac-[ξNMeW]-[Aib]-OH) | > 278 | 0.8 | 1.3 |  |  |  | 
CC(C)(NC(=O)C(N)Cc1c[nH]c2ccccc12)C(N)=O (stereo not drawn) (H-[ξW]-[Aib]-NH2) | > 355 |  | 1.6 | >100 | >100 |  | 
CC(C)(C)OC(=O)C(C)(C)NC(=O)[C@H](N)Cc1c[nH]c2ccccc12 [Compound 1] (H-[dW]-[Aib]-OtBu) |  |  |  |  |  |  | inhibition of Aβ1-42 globulomer formation (Aβ1-42; 10:1 (inhibitor:Aβ peptide) molar ratio): inhibit; inhibition of Aβ1-42 globulomer formation (Aβ1-42; 20:1 (inhibitor:Aβ peptide) molar ratio): inhibit
CC(=O)N[C@H](Cc1c[nH]c2ccccc12)C(=O)NC(C)(C)C(=O)O [Compound A] |  |  |  |  |  | 2.8 ± 0.8 | 
CC(=O)N(C)[C@H](Cc1c[nH]c2ccccc12)C(=O)NC(C)(C)C(=O)O [Compound B] (Ac-[dNMeW]-[Aib]-OH) |  |  |  |  |  | 56.4 ± 32.7 | 
CC(C)(NC(=O)[C@@H](Cc1c[nH]c2ccccc12)NC=O)C(=O)O [Compound C] |  |  |  |  |  | 3.9 ± 0.1 | 
CNC(=O)C(C)(C)NC(=O)[C@H](N)Cc1c[nH]c2ccccc12 [Compound E] (H-[dW]-[Aib]-NHMe) |  |  |  |  |  | 40.2 ± 3.4 | 
CN(C)C(=O)C(C)(C)NC(=O)[C@H](N)Cc1c[nH]c2ccccc12 [Compound F] (H-[dW]-[Aib]-NMe2) |  |  |  |  |  | 4.2 | 
CN(C(=O)[C@@H](Cc1c[nH]c2ccccc12)NC(=O)OC(C)(C)C)C(C)(C)C(=O)O [Compound Q] (Boc-[dW]-[NMeAib]-OH) |  |  |  |  |  | 3.8 ± 1.4 | 
CC(=O)N[C@H](Cc1c[nH]c2ccccc12)C(=O)N(C)C(C)(C)C(=O)O [Compound R] (Ac-[dW]-[NMeAib]-OH) |  |  |  |  |  | 4.3 ± 1 | 
CC(C)(C)OC(=O)N/C(=C\c1c[nH]c2ccccc12)C(=O)NC(C)(C)C(N)=O [Compound T] |  |  |  |  |  | 1.5 ± 0.6 | 
CC(C)(C)OC(=O)N/C(=C\c1c[nH]c2ccccc12)C(=O)NC(C)(C)C(=O)O [Compound U] |  |  |  |  |  | 6.2 ± 1.9 | 
CNC(=O)C(C)(C)N(C)C(=O)[C@@H](Cc1c[nH]c2ccccc12)NC(C)=O [Compound V] (Ac-[dW]-[NMeAib]-NHMe) |  |  |  |  |  | 0.5 | 
CC(C)(C)OC(=O)N/C(=C\c1c[nH]c2ccccc12)C(=O)NC(C)(C)C(=O)O [drawing 63] | > 280 | 1.2 | 2.1 | 95 | 81 |  | 
CC(C)(C)OC(=O)N/C(=C\c1c[nH]c2ccccc12)C(=O)NC(C)(C)C(N)=O [drawing 64] | > 282 | 1.6 | 10.6 |  |  |  | 
CN(C(=O)[C@@H](Cc1c[nH]c2ccccc12)NC(=O)OC(C)(C)C)C(C)(C)C(=O)O [drawing 65] (Boc-[dW]-[NMeAib]-OH) | 239 (≈ 96.4 µg/mL) | 0.3 | 1.4 | 100 | 87 |  | 
CC(=O)N[C@H](Cc1c[nH]c2ccccc12)C(=O)N(C)C(C)(C)C(=O)O [drawing 66] (Ac-[dW]-[NMeAib]-OH) | > 286 | 1 | 0.7 | 88 | >100 |  | 
CC(C)(NC(=O)C(N)Cc1c[nH]c2ccccc12)C(=O)O (stereo not drawn) [reference compound] | > 350 |  | 1.2 | >100 | >100 |  | 

Source: patent US9630989B2, “Dipeptide analogs for treating conditions associated with amyloid fibril formation” (Ramot at Tel-Aviv University Ltd., priority 2010, dated 2017)
